Measured values published in the supplement of paper PMC10307832.

Columns and labels:
Experiment in all cases: relative viability (nuclei count vs DMSO), 5 days (fraction); higher = more cells survive
BAM7 = compound: CCOC1=CC=CC=C1N=NC2=C(NN(C2=O)C3=NC(=CS3)C4=CC=CC=C4)C [BAM7]
Procedure, shortened: (§1)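 For viability, nuclei in each treated well were divided by nuclei in vehicle wells and the median across plates was taken. Lung cancer cell lines in 1536-well plates were pinned with five library-drug doses (not always all listed) spaced by √10, cultured 5 days without medium change, and imaged at 4× after Hoechst staining, with plates passing only at control CV below 25% and at least one doubling.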

[1] = compound: CCn1c(-c2nonc2N)nc2c(C#CC(C)(C)O)ncc(OC[C@H]3CCCNC3)c21
Procedure, shortened: as §1

BAM7 + Navitoclax = compound: CCOC1=CC=CC=C1N=NC2=C(NN(C2=O)C3=NC(=CS3)C4=CC=CC=C4)C [BAM7] + CC1(C)CCC(c2ccc(Cl)cc2)=C(CN2CCN(c3ccc(C(=O)NS(=O)(=O)c4ccc(N[C@H](CCN5CCOCC5)CSc5ccccc5)c(S(=O)(=O)C(F)(F)F)c4)cc3)CC2)C1 [Navitoclax] (partner 0.5 µM)
Procedure, shortened: (§2)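 The day after seeding in 1536-well plates, lung cancer cell lines were treated by pin tool with a single drug, or with a fixed anchor-drug dose together with five library-drug doses (not always all listed) in √10 steps. After 5 days, a combined fix-and-stain solution (final 0.05% Triton X-100, 1% formaldehyde, 1 ug/ml Hoechst) was added. Nuclei counted on 4× images gave relative viability as treated counts over vehicle counts, reported as the median of duplicate plates.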

BAM7 + Foretinib = compound: CCOC1=CC=CC=C1N=NC2=C(NN(C2=O)C3=NC(=CS3)C4=CC=CC=C4)C [BAM7] + COc1cc2c(Oc3ccc(NC(=O)C4(C(=O)Nc5ccc(F)cc5)CC4)cc3F)ccnc2cc1OCCCN1CCOCC1 [Foretinib] (partner 0.25 µM)
Procedure, shortened: as §2

Row | Cell Line | relative viability (BAM7; 0.5 µM) | relative viability (BAM7; 5 µM) | relative viability (BAM7; 15.81 µM) | relative viability (BAM7; 50 µM) | relative viability ([1]; 0.01 µM) | relative viability ([1]; 0.03162 µM) | relative viability ([1]; 0.1 µM) | relative viability ([1]; 0.3162 µM) | relative viability ([1]; 1 µM) | relative viability (BAM7 + Navitoclax; first compound 0.5 µM) | relative viability (BAM7 + Navitoclax; first compound 5 µM) | relative viability (BAM7 + Navitoclax; first compound 15.81 µM) | relative viability (BAM7 + Navitoclax; first compound 50 µM) | relative viability (BAM7 + Foretinib; first compound 0.5 µM) | relative viability (BAM7 + Foretinib; first compound 5 µM) | relative viability (BAM7 + Foretinib; first compound 15.81 µM) | relative viability (BAM7 + Foretinib; first compound 50 µM)
1 | SK-LU-1 | 1.04 | 1.24 | 0.962 | 1.13 | 1.06 | 1.09 | 0.88 | 0.953 | 0.966 | 0.487 | 1.01 | 0.8 | 0.827 | 0.875 | 0.925 | 0.72 | 0.857
2 | ChaGo-K-1 | 0.966 | 1.02 | 1.01 | 0.92 | 0.965 | 0.988 | 0.972 | 0.936 | 1 | 0.882 | 1.18 | 1.11 | 1.08 | 0.806 | 0.928 | 0.724 | 0.983
3 | COR-L 105 | 0.833 | 0.909 | 0.95 | 1.14 | 0.919 | 0.961 | 1.01 | 0.843 | 1.04 | 0.825 | 0.664 | 0.784 | 0.826 | 0.957 | 1.24 | 0.937 | 0.979
4 | NCI-H1975 | 0.823 | 0.898 | 0.775 | 0.903 | 0.932 | 1 | 0.96 | 0.921 | 0.843 | 0.9 | 1.1 |  | 0.862 | 0.77 | 0.801 | 0.718 | 0.829
5 | Calu-6 | 1.07 | 1.06 | 0.989 | 0.995 | 0.995 | 1.02 | 1.02 | 0.982 | 1.03 | 0.911 | 0.919 | 0.906 | 0.824 | 0.939 | 0.951 | 0.891 | 0.893
6 | NCI-H1993 | 0.776 | 0.764 | 0.744 | 0.737 | 0.968 | 0.976 | 0.985 | 0.92 | 0.852 | 0.819 | 0.899 | 0.739 | 0.813 | 0.73 | 0.738 | 0.717 | 0.708
7 | RERF-LC-KJ | 0.94 | 0.913 | 0.745 | 0.812 | 0.959 | 0.97 | 0.99 | 0.966 | 1.05 | 0.908 | 0.805 | 0.907 | 0.847 | 0.821 | 0.832 | 0.81 | 0.833
8 | NCI-H23 | 1.21 | 1.06 | 1.04 | 1.06 | 0.918 | 0.939 | 0.878 | 0.902 | 0.852 | 0.978 | 0.846 | 0.921 | 0.934 | 1.05 | 1.03 | 0.928 | 1.1
9 | HCC-366 | 1.04 | 1.04 | 1.03 | 1.02 | 0.993 | 1.05 | 0.805 | 0.998 | 0.99 | 1.11 | 0.981 | 0.964 | 0.957 | 0.92 | 0.849 | 0.94 | 0.836
10 | EMC-BAC-2 | 1.03 | 1.08 | 1.22 | 1.02 | 0.919 | 0.725 | 0.933 | 0.937 | 1.04 | 1.2 | 1.23 | 1.08 | 1.17 | 0.974 | 1.04 | 0.985 | 1.05
11 | NCI-H2405 | 0.989 | 1.13 | 1.03 | 1.08 | 1.05 | 0.934 | 0.973 | 0.969 | 0.993 | 0.946 | 1.11 | 0.747 | 1 | 1.04 | 1.12 | 1.02 | 1.04
12 | NCI-H1944 | 0.947 | 0.949 | 0.857 | 1 | 0.941 | 0.922 | 0.919 | 0.935 | 1.01 | 1.07 | 1.14 | 0.875 | 0.882 | 0.79 | 0.905 | 0.767 | 0.888
13 | EPLC-272H | 0.989 | 0.95 | 0.95 | 0.995 | 0.874 | 0.936 | 0.869 | 0.91 | 0.87 | 1.32 | 1.21 | 1.15 | 1.17 | 0.653 |  | 0.632 | 0.811
14 | EBC-1 | 1.05 | 1.04 | 0.952 | 1.06 | 0.986 | 0.963 | 0.973 | 0.883 | 0.757 | 0.403 | 0.389 | 0.382 | 0.423 | 0.0974 | 0.103 | 0.0984 | 0.102
15 | NCI-H1915 | 1.01 | 1.13 | 0.989 | 0.991 | 0.965 | 1.03 | 0.917 | 0.983 | 0.996 | 0.756 | 0.776 | 0.803 | 0.807 | 1.21 | 1.15 | 1.02 | 1.02
16 | NCI-H596 | 0.965 | 1.08 | 0.957 | 1.07 | 0.947 | 0.962 | 0.752 | 0.936 | 1.06 | 0.82 | 0.937 | 0.92 | 1.06 | 0.874 | 0.883 | 0.762 | 0.951
17 | NCI-H322M | 0.922 | 0.96 | 1 | 0.991 | 0.887 | 0.763 | 0.839 | 0.827 | 0.828 | 1.3 | 1.22 | 1.18 | 1.06 | 0.939 | 0.95 | 0.862 | 0.932
18 | NCI-H1299 | 1.01 | 1.06 | 1.01 | 1.01 | 0.984 | 1.05 | 1.01 | 1.01 | 1.04 | 1.05 | 1.08 | 1.07 | 1.06 | 1.07 | 1.18 | 1.08 | 1.11
19 | NCI-H2228 | 1.06 | 0.968 | 0.914 | 1.2 | 0.938 | 1.1 | 1.04 | 0.848 | 0.809 | 0.985 | 1.4 | 0.818 | 1.27 | 1.04 | 0.964 | 0.879 | 1.16
